Tests used:
[1] = tested on: Spodoptera littoralis (Egyptian Cotton Leafworm); assay: Example B1: activity against Spodoptera littoralis, larvicide, feeding/residual contact, preventive (cotton leaf discs); type: in vivo; conditions: foliar, 72 h, 3 days after treatment, L1 larvae
From the text: Activity Against Spodoptera littoralis (Egyptian Cotton Leafworm)
(§1) (Larvicide, Feeding/Residual Contact Activity, Preventive)
The samples are checked for mortality, repellent effect, feeding behaviour, and growth regulation 3 days after treatment. In this test, compounds listed in Table P above show good activity. In particular compounds P.1, P.2, P.3, P.4, P.5, P.6, P.7, P.9, P.10, P.11, P.12, P.13, P.15, P.16, P.17, P.18, P.19, P.20, P.21, P.22, P.23, P.24, P.25, P.26, P.27, P.28, P.29, P.30, P.31, P.32, P.33, P.34, P.35, P.36, P.37, P.38, P.39, P.40, P.41, P.42, P.43, P.44, P.45, P.46, P.47, P.48, P.49, P.50, P.51, P.52, P.53, P.54, P.55, P.56, P.57, P.58, P.59, P.60, P.61, P.63, P.64, P.67, P.68 and P.70 show an activity of over 80% at a concentration of 400 ppm.

[2] = tested on: Heliothis virescens (Tobacco Budworm); assay: Example B2: activity against Heliothis virescens, ovo-larvicide, feeding/contact, curative; type: in vivo; conditions: 96 h, 4 days incubation, eggs 0-24 h old
Procedure: Activity Against Heliothis virescens (Tobacco Budworm)
(Ovo-Larvicide, Feeding/Contact Activity, Curative)
Eggs (0-24 h old) are placed in 24-well microtiter plate on artificial diet and treated with test solutions by pipetting. After an incubation period of 4 days, samples are checked for egg mortality, larval mortality, and growth regulation.

[3] = tested on: Plutella xylostella (Diamond Back Moth); assay: Example B3: Plutella xylostella, larvicide, feeding/residual contact, preventive (artificial diet MTP); type: in vivo; conditions: 120 h, 5 days incubation, L2 larvae
Procedure: Plutella xylostella (Diamond Back Moth)
as §1
24-well microtiter plate (MTP) with artificial diet is treated with test solutions by pipetting. After drying, the MTP's are infested with larvae (L2)(10-15 per well). After an incubation period of 5 days, samples are checked for larval mortality, antifeedant and growth regulation. In this test, compounds listed in Table P above show good activity. In particular compounds P.1, P.2, P.3, P.4, P.5, P.6, P.7, P.9, P.10, P.11, P.12, P.13, P.15, P.16, P.17, P.18, P.19, P.20, P.21, P.22, P.23, P.25, P.26, P.27, P.28, P.29, P.30, P.31, P.32, P.33, P.34, P.35, P.36, P.37, P.38, P.39, P.40, P.41, P.42, P.43, P.44, P.46, P.47, P.48, P.49, P.50, P.51, P.52, P.53, P.54, P.55, P.56, P.57, P.58, P.59, P.60, P.61, P.63, P.64, P.67, P.68, P.69 P.70, P.72, P.74, P.77, P78 and P.79 show an activity of over 80% at a concentration of 400 ppm.

[4] = tested on: Diabrotica balteata (Corn Root Worm); assay: Example B4: Diabrotica balteata, larvicide, feeding/residual contact, preventive; type: in vivo; conditions: 120 h, 5 days incubation, L2 larvae
Procedure: Diabrotica balteata (Corn Root Worm)
as §1
After drying, the MTP's are infested with larvae (L2)(6-10 per well). After an incubation period of 5 days, samples are checked for larval mortality, antifeedant and growth regulation. In this test, compounds listed in Table P above show good activity. In particular compounds P.1, P.2, P.5, P.6, P.10, P.11, P.12, P.13, P.15, P.16, P.17, P.18, P.19, P.24, P.25, P.27, P.28, P.29, P.30, P.31, P.33, P.34, P.35, P.37, P.38, P.39, P.42, P.43, P.44, P.45, P.46, P.47, P.48, P.49, P.50, P.52, P.53, P.65, P.67, P.68, P.69, P.70, P.71, P.72, P.75, P.78, and P.79 show an activity of over 80% at a concentration of 400 ppm.

[5] = tested on: Frankliniella occidentalis (Western Flower Thrips); assay: Example B9: activity against Frankliniella occidentalis (bean leaf discs or bean plants); type: in vivo; conditions: foliar, 6 days (leaf discs) or 14 days (plants) after infestation
Procedure: Activity Against Frankliniella occidentalis (Western Flower Thrips)
Bean leaf discs on agar in petri dishes or bean plants in a spray chamber are treated with diluted test solutions. After drying leaf discs are cut and placed in plastic cups on the surface of an agar layer and infested with mixed population. 6 days (leaf discs) or 14 days (plants) after the infestation, samples are checked for reduction of treated population and compared to the non treated population.

[6] = tested on: Myzus persicae (Green Peach Aphid); assay: Example B6: activity against Myzus persicae, mixed population, systemic/feeding, curative (pea seedling roots); conditions: 144 h, read-out: activity
[7] = tested on: Myzus persicae (Green Peach Aphid); assay: Example B5: activity against Myzus persicae, mixed population, feeding/residual contact, preventive (sunflower leaf discs); conditions: foliar, 144 h, read-out: activity
[8] = tested on: Thrips tabaci (Onion Thrips); assay: Example B7: activity against Thrips tabaci, mixed population, feeding/residual contact, preventive; conditions: 144 h, read-out: activity

Measured: pest or weed control at 400 ppm

CC(C)(CS(C)(=O)=O)NC(=O)c1c(NC(=O)c2cc(C(F)(F)F)nn2-c2ncccc2Cl)c(Cl)cc2cn[nH]c12 [P.15]
not listed: [8]
> 80%: all other assays above

CC(C)NC(=O)c1c(NC(=O)c2cc(C(F)(F)F)nn2-c2ncccc2Cl)c(Br)cc2cn[nH]c12 [P.16]
not listed: [5] | [6]
> 80%: all other assays above

CNC(=O)c1c(NC(=O)c2cc(C(F)(F)F)nn2-c2ncccc2Cl)c(C)cc2nc(C)ccc12 [P.22]
> 80%: [1] | [2] | [3] | [5]

CC(C)NC(=O)c1c(NC(=O)c2cc(C(F)(F)F)nn2-c2ncccc2Cl)c(C#N)cc2cn[nH]c12 [P.25]
not listed: [5] | [6]
> 80%: all other assays above

COc1cc(C(=O)Nc2c(Br)cc3cn[nH]c3c2C(=O)NCC2CC2)n(-c2ncccc2Cl)n1 [P.36]
> 80%: [1] | [2] | [3] | [6] | [7]

CCNC(=O)c1c(NC(=O)c2cc(OC)nn2-c2ncccc2Cl)c(Br)cc2cn[nH]c12 [P.50]
not listed: [5]
> 80%: all other assays above

COc1cc(C(=O)Nc2c(Br)cc3cn[nH]c3c2C(=O)NC(C)(C)CSC)n(-c2ncccc2Cl)n1 [P.51]
not listed: [4] | [5]
> 80%: all other assays above

COc1cc(C(=O)Nc2c(C#N)cc3cn[nH]c3c2C(=O)NC2(C3CC3)CC2)n(-c2ncccc2Cl)n1 [P.53]
not listed: [5]
> 80%: all other assays above

COc1cc(C(=O)Nc2c(C#N)cc3cn[nH]c3c2C(=O)NC(C)C)n(-c2ncccc2Cl)n1 [P.55]
not listed: [4] | [5]
> 80%: all other assays above

COc1cc(C(=O)Nc2c(Cl)cc3cn[nH]c3c2C(=O)NC(C)(C)CSC)n(-c2ncccc2Cl)n1 [P.57]
not listed: [4] | [5]
> 80%: all other assays above

CCNC(=O)c1c(NC(=O)c2cc(OC)nn2-c2ncccc2Cl)c(Cl)cc2cn[nH]c12 [P.58]
not listed: [4] | [5]
> 80%: all other assays above

COc1cc(C(=O)Nc2c(Cl)cc3cn[nH]c3c2C(=O)NC2(C)CSC2)n(-c2ncccc2Cl)n1 [P.59, 5-chloro-6-{[2-(3-chloro-pyridin-2-yl)-5-methoxy-2H-pyrazole-3-carbonyl]-amino}-1H-indazole-7-carboxylic acid (3-methyl-thietan-3-yl)-amide]
not listed: [4] | [5]
> 80%: all other assays above

Cc1cc2cn[nH]c2c(C(=O)NC(C)C)c1NC(=O)c1cc(Br)nn1-c1ncccc1Cl [P.65, 6-{[5-bromo-2-(3-chloro-pyridin-2-yl)-2H-pyrazole-3-carbonyl]-amino}-5-methyl-1H-indazole-7-carboxylic acid isopropylamide]
> 80%: [4] | [8] | [6]

CC(C)NC(=O)c1c(NC(=O)c2cc(C(F)(F)F)nn2-c2ncccc2Cl)c(Cl)cc2c(Br)n[nH]c12 [P.67]
> 80%: [1] | [2] | [3] | [4] | [8]

O=C(NC1(C2CC2)CC1)c1c(NC(=O)c2cc(C(F)(F)F)nn2-c2ncccc2Cl)c(Cl)cc2c(Br)n[nH]c12 [P.68]
> 80%: [1] | [2] | [3] | [4] | [8]

Cc1cc2cn[nH]c2c(C(=O)NC2(C3CC3)CC2)c1NC(=O)c1cc(Br)nn1-c1ncccc1Cl [P.71, 6-{[5-bromo-2-(3-chloro-pyridin-2-yl)-2H-pyrazole-3-carbonyl]-amino}-5-methyl-1H-indazole-7-carboxylic acid bicyclopropyl-1-ylamide]
> 80%: [2] | [4] | [8] | [6]

From patent publication US8658801B2, “Pesticides containing a bicyclic bisamide structure” (Syngenta Crop Protection, LLC, priority 2006, dated 2014)
